Reference: US20260265238A1, “COMPOUNDS AND PHARMACEUTICAL COMPOSITIONS THAT DEGRADE SWI/SNF-RELATED MATRIX-ASSOCIATED ACTIN-DEPENDENT REGULATOR OF CHROMATIN SUBFAMILY A” (Plexium, Inc., priority 2023, published 2026)

Assays:
[1] = target: T1, SMARCA2-HiBiT HeLa cells (protein which is expressed from the SMARCA2 gene) (Homo sapiens, UniProt P51531); assay: SMARCA2 degradation assay (HiBiT-fusion HeLa cell line, 24 h, luminescence); assay type: cell-based
T1 construct: protein which is expressed from the SMARCA2 and SMARCA4 genes; host or cells: HeLa (SMARCA2-HiBiT engineered line)
T1 sequence (P51531 whole entry, the tested form may be a part): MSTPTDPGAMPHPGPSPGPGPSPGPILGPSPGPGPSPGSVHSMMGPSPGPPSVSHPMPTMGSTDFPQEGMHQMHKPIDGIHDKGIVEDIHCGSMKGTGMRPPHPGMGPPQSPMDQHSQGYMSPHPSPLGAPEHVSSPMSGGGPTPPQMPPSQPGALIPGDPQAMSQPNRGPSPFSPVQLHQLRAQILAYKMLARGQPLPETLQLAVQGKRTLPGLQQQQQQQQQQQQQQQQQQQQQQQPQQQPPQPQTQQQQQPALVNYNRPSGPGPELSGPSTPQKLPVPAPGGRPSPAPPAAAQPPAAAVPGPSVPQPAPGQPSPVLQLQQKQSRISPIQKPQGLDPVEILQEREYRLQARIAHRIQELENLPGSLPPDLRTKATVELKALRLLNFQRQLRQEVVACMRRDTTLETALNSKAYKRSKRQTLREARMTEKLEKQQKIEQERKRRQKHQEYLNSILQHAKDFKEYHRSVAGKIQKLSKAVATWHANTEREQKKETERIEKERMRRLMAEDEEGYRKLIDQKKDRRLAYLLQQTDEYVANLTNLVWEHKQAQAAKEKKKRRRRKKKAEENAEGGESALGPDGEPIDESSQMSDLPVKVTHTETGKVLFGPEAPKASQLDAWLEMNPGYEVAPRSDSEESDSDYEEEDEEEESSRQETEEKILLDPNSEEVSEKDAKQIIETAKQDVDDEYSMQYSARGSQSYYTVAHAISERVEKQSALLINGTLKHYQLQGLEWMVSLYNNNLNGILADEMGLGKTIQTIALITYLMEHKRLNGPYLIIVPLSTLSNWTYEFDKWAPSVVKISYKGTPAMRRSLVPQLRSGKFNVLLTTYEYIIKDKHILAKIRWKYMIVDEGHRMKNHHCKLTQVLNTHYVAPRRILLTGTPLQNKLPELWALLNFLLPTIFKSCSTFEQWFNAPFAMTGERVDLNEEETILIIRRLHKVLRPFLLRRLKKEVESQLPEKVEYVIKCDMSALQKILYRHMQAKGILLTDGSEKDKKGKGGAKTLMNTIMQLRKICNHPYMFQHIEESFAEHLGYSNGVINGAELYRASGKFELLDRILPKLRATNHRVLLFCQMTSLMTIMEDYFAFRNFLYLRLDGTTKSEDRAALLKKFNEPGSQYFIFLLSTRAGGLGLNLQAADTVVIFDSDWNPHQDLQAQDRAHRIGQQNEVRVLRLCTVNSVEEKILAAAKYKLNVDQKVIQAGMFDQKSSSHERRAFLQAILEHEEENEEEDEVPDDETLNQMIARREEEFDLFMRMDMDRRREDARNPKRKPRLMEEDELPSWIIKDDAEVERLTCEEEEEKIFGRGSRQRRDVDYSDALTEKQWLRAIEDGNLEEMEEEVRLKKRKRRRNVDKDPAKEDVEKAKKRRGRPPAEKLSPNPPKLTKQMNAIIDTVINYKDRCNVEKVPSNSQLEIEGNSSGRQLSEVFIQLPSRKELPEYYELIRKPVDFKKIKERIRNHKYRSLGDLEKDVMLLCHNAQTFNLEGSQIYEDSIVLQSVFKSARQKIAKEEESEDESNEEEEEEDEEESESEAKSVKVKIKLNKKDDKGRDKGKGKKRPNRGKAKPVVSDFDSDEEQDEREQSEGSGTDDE
How it was run: (§1)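 HiBiT-fusion HeLa lines, 8,000 cells/well, overnight attachment; cpd 10-pt series (typically 10 μM–300 pM), 24 h, 37° C. Lysis with LgBiT + HiBiT substrate, 10 min shaking at RT, luminescence read. DC50 from dose-response fit; % degradation also scored at 1 μM.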

[2] = target: T2, SMARCA4-HiBiT HeLa cells (protein which is expressed from the SMARCA4 gene) (Homo sapiens, UniProt P51532); assay: SMARCA4 degradation assay (HiBiT-fusion HeLa cell line, 24 h, luminescence); assay type: cell-based
T2 construct: protein which is expressed from the SMARCA2 and SMARCA4 genes; host or cells: HeLa (SMARCA4-HiBiT engineered line)
T2 sequence (P51532 whole entry, the tested form may be a part): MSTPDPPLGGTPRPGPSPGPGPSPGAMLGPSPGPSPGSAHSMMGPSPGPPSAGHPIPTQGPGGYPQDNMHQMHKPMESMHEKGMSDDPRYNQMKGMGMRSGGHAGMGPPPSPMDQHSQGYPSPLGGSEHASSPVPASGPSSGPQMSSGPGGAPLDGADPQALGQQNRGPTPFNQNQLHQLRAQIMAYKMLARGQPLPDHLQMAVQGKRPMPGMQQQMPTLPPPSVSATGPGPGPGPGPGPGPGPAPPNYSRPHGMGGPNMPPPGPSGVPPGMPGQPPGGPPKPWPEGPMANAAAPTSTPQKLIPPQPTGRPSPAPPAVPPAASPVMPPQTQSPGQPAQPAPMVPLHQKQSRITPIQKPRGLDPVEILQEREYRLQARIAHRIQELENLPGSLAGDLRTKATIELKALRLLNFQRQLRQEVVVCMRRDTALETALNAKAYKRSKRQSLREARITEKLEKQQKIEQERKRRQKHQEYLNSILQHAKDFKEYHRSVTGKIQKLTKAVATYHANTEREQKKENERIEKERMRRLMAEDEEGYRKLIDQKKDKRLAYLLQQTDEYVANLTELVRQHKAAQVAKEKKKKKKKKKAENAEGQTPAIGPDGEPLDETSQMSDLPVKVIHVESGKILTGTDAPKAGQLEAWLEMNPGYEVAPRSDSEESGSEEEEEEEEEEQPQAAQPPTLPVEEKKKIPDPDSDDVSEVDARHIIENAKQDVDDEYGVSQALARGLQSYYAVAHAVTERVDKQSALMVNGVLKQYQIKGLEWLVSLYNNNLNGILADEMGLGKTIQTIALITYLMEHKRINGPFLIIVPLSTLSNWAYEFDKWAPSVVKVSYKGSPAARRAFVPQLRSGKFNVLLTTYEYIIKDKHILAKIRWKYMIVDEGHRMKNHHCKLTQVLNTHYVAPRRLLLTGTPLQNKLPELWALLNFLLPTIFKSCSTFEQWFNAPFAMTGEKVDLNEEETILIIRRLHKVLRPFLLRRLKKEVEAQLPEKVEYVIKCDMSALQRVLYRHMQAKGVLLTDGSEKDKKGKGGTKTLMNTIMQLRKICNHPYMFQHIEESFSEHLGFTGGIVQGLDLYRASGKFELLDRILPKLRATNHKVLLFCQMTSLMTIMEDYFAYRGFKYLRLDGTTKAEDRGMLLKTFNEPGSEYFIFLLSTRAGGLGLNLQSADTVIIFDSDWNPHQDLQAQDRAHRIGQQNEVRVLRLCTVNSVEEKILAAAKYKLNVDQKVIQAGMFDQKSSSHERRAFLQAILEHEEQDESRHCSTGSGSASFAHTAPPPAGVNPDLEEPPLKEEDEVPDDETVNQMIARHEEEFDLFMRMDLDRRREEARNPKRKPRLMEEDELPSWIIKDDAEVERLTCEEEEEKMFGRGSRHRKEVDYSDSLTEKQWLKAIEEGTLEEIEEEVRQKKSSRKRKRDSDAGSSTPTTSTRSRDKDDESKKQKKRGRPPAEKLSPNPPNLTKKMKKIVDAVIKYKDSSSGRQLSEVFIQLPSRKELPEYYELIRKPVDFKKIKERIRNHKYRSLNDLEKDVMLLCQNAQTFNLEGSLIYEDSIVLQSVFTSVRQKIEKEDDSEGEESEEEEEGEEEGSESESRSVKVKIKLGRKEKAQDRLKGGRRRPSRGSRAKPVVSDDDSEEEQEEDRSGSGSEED
How it was run: as §1

SMILES	DC50 [1] [nM]	SMARCA2 % Degradation @ 1 μM [1]	DC50 [2] [nM]	inhibition at 1 µM [2] [%]	SMARCA4 % Degradation @ 1 μM [2]
Nc1nnc(-c2ccccc2O)cc1N1CCCN(c2ccnc(C#CC34CCCN3CCC4)n2)CC1 [Compound P-355, 0-[6-amino-5-(4-{2-[2-(hexahydro-1H-pyrrolizin-7a-yl)ethynyl]-4-pyrimidinyl}-1,4-diazepan-1-yl)-3-pyridazinyl]phenol]	50 to 500	+++ (+++=>70%)	50 to 500	> 70	
CC(C)(C)OC(=O)N1C2CCC1CN(CC#Cc1nccc(N3CCCN(c4cc(-c5ccccc5O)nnc4N)CC3)n1)C2 [Compound P-358, tert-butyl 3-[3-(4-{4-[3-amino-6-(o-hydroxyphenyl)-4-pyridazinyl]-1,4-diazepan-1-y1}-2-pyrimidinyl)-2-propynyl]-3,8-diazabicyclo[3.2.1]octane-8-carboxylate]	500 to 5000	++ (++=30-70%)	500 to 5000	30 to 70	
Nc1nnc(-c2ccccc2O)cc1N1CCCN(c2ccnc(C#CC3CC3)n2)CC1 [Compound P-359, 0-(6-amino-5-{4-[2-(2-cyclopropylethynyl)-4-pyrimidinyl]-1,4-diazepan-1-yl}-3-pyridazinyl)phenol]	50 to 500	++ (++=30-70%)	50 to 500	< 30	
CCC1CN(CC#Cc2nccc(N3CCCN(c4cc(-c5ccccc5O)nnc4N)CC3)n2)c2ccccc2O1 (stereo not shown) [Compound P-360, 0-[6-amino-5-(4-{2-[3-(2-ethyl-3,4-dihydro-2H-1,4-benzoxazin-4-yl)-1-propynyl]-4-pyrimidinyl}-1,4-diazepan-1-yl)-3-pyridazinyl]phenol]	50 to 500	++ (++=30-70%)	50 to 500	30 to 70	
Nc1nnc(-c2cc(F)ccc2O)cc1N1CCCN(c2ccnc(C#CCNC(=O)c3cc4ncccn4n3)n2)CC1 [Compound P-367, N-[3-(4-{4-[3-amino-6-(5-fluoro-2-hydroxyphenyl)-4-pyridazinyl]-1,4-diazepan-1-y1}-2-pyrimidinyl)-2-propynyl]-1,4,7a-triaza-2-indenecarboxamide]	500 to 5000	++ (++=30-70%)	500 to 5000	< 30	
CC(C)(C)OC(=O)NC1CCN(CC#Cc2nccc(N3C4CCC3CN(c3cnnc(-c5ccccc5O)c3)C4)n2)CC1 [Compound P-368, tert-butyl-1-[3-(4-{3-[6-(o-hydroxyphenyl)-4-pyridazinyl]-3,8-diazabicyclo[3.2.1]oct-8-y1}-2-pyrimidinyl)-2-propynyl]-4-piperidylaminoformylate]	50 to 500	++ (++=30-70%)	50 to 500		++ (++=30-70%)
Oc1ccccc1-c1cc(N2CC3CCC(C2)N3c2ccnc(C#CCN3CCCCC3)n2)cnn1 [Compound P-369, 0-(5-{8-[2-(3-piperidino-1-propynyl)-4-pyrimidinyl]-3,8-diazabicyclo[3.2.1]oct-3-y1}-3-pyridazinyl)phenol]	< 50	++ (++=30-70%)	500 to 5000	< 30	
Nc1nnc(-c2ccccc2O)cc1N1CCCN(c2ccnc(C#CCN3CCOC4(CCCC4)C3)n2)CC1 [Compound P-370, 0-{6-amino-5-[4-(2-{3-(6-oxa-9-aza-9-spiro[4.5]decyl)-1-propynyl}-4-pyrimidinyl)-1,4-diazepan-1-yl]-3-pyridazinyl}phenol]	50 to 500	+++ (+++=>70%)	50 to 500	30 to 70	
CC(C)(C)OC(=O)N1CC(C#Cc2nccc(N3CCCN(c4cc(-c5ccccc5O)nnc4N)CC3)n2)C1 [Compound P-371, tert-butyl 3-[2-(4-{4-[3-amino-6-(o-hydroxyphenyl)-4-pyridaziny1]-1,4-diazepan-1-yl}-2-pyrimidinyl)ethynyl]-1-azetidinecarboxylate]	50 to 500	+++ (+++=>70%)	50 to 500	30 to 70	
Nc1nnc(-c2ccccc2O)cc1N1CCCN(c2ccnc(C#CCN3C(=O)c4ccccc4C3=O)n2)CC1 [Compound P-375, 2-[3-(4-{4-[3-amino-6-(o-hydroxyphenyl)-4-pyridaziny1]-1,4-diazepan-1-yl}-2-pyrimidinyl)-2-propynyl]-1,3-isoindolinedione]	50 to 500	+++ (+++=>70%)	50 to 500		++ (++=30-70%)

Results, then the compound that gave them:

DC50 [1] [nM]	SMARCA2 % Degradation @ 1 μM [1]	DC50 [2] [nM]	inhibition at 1 µM [2] [%]	SMARCA4 % Degradation @ 1 μM [2]	SMILES
500 to 5000	++ (++=30-70%)	500 to 5000	< 30		C[C@@H]1CN(CC#Cc2nccc(N3CCCN(c4cc(-c5ccccc5O)nnc4N)CC3)n2)C[C@@H](C)O1 [Compound P-356, 0-{5-[4-(2-{3-[(2R,6R)-2,6-dimethyl-4-morpholinyl]-1-propynyl}-4-pyrimidinyl)-1,4-diazepan-1-yl]-6-amino-3-pyridazinyl}phenol]
50 to 500	++ (++=30-70%)	500 to 5000	30 to 70		N#CC1CCN(CC#Cc2nccc(N3CCCN(c4cc(-c5ccccc5O)nnc4N)CC3)n2)CC1 [Compound P-357, 1-[3-(4-{4-[3-amino-6-(o-hydroxyphenyl)-4-pyridazinyl]-1,4-diazepan-1-yl}-2-pyrimidinyl)-2-propynyl]-4-piperidinecarbonitrile]
500 to 5000	++ (++=30-70%)	500 to 5000	< 30		Nc1nnc(-c2ccccc2O)cc1N1CCCN(c2ccnc(C#CCN3CCCC(O)C3)n2)CC1 (stereo not shown) [Compound P-361, 1-[3-(4-{4-[3-amino-6-(o-hydroxyphenyl)-4-pyridazinyl]-1,4-diazepan-1-yl}-2-pyrimidinyl)-2-propynyl]-3-piperidinol]
50 to 500	++ (++=30-70%)	500 to 5000	30 to 70		CN1C(=O)NC2(CCN(CC#Cc3nccc(N4CCCN(c5cc(-c6ccccc6O)nnc5N)CC4)n3)CC2)C1=O [Compound P-362, 8-[3-(4-{4-[3-amino-6-(o-hydroxyphenyl)-4-pyridazinyl]-1,4-diazepan-1-yl}-2-pyrimidinyl)-2-propynyl]-3-methyl-1,3,8-triaza-2,4-spiro [4.5]decanedione]
500 to 5000	++ (++=30-70%)	500 to 5000	30 to 70		Nc1nnc(-c2ccccc2O)cc1N1CCCN(c2ccnc(C#CCN3CCn4c(nnc4C(F)(F)F)C3)n2)CC1 [Compound P-363, 0-{6-amino-5-[4-(2-{3-[3-(trifluoromethyl)-4,5,6,7-tetrahydro-1,2,3a,6-tetraaza-6-indenyl]-1-propynyl}-4-pyrimidinyl)-1,4-diazepan-1-yl]-3-pyridaziny1} phenol]
500 to 5000	++ (++=30-70%)	500 to 5000	< 30		Nc1nnc(-c2ccccc2O)cc1N1CCCN(c2ccnc(C#CCN3CC(=O)NC(=O)C3)n2)CC1 [Compound P-364, 4-[3-(4-{4-[3-amino-6-(o-hydroxyphenyl)-4-pyridazinyl]-1,4-diazepan-1-yl}-2-pyrimidinyl)-2-propynyl]-2,6-piperazinedione]
500 to 5000	++ (++=30-70%)	500 to 5000	30 to 70		Nc1nnc(-c2ccccc2O)cc1N1CCCN(c2ccnc(C#CCN3CCN(C(=O)C4CC4)CC3)n2)CC1 [Compound P-365, {4-[3-(4-{4-[3-amino-6-(o-hydroxyphenyl)-4-pyridaziny1]-1,4-diazepan-1-yl}-2-pyrimidinyl)-2-propynyl]-1-piperazinyl}cyclopropylmethanone]
50 to 500	+++ (+++=>70%)	50 to 500	> 70		Nc1nnc(-c2ccccc2O)cc1N1CCCN(c2ccnc(C#CCN3CCCC3)n2)CC1 [Compound P-366, 0-[6-amino-5-(4-{2-[3-(1-pyrrolidinyl)-1-propynyl]-4-pyrimidinyl}-1,4-diazepan-1-yl)-3-pyridazinyl]phenol]
50 to 500	+++ (+++=>70%)	50 to 500	30 to 70		Nc1nnc(-c2ccccc2O)cc1N1CCCN(c2ccnc(C#CCN3CCCC3=O)n2)CC1 [Compound P-372, 1-[3-(4-{4-[3-amino-6-(o-hydroxyphenyl)-4-pyridaziny1]-1,4-diazepan-1-y1}-2-pyrimidinyl)-2-propynyl]-2-pyrrolidinone]
50 to 500	+++ (+++=>70%)	50 to 500	30 to 70		Nc1nnc(-c2ccccc2O)cc1N1CCCN(c2ccnc(C#CCN3CCCCC3)n2)CC1 [Compound P-373, 0-(6-amino-5-{4-[2-(3-piperidino-1-propynyl)-4-pyrimidinyl]-1,4-diazepan-1-yl}-3-pyridazinyl)phenol]
50 to 500	+++ (+++=>70%)	50 to 500	30 to 70		Nc1nnc(-c2ccccc2O)cc1N1CCCN(c2ccnc(C#CCN3CCOC3=O)n2)CC1 [Compound P-374, 3-[3-(4-{4-[3-amino-6-(o-hydroxyphenyl)-4-pyridazinyl]-1,4-diazepan-1-yl}-2-pyrimidinyl)-2-propynyl]-1,3-oxazolidin-2-one]
50 to 500	++ (++=30-70%)	500 to 5000	30 to 70		Nc1nnc(-c2ccccc2O)cc1N1CCCN(c2ccnc(C#CCN3C[C@H]4C[C@@H]3CO4)n2)CC1 [Compound P-376, 0-(5-{4-[2-(3-{(1R,4R)-2-oxa-5-azabicyclo[2.2.1]hept-5-y1}-1-propynyl)-4-pyrimidinyl]-1,4-diazepan-1-y1}-6-amino-3-pyridazinyl)phenol]
